Assay results from the supplement of paper PMC10307832.

What was measured:
Experiment in all cases: relative viability (nuclei count vs DMSO), 5 days (fraction); higher = more cells survive
[1] = tested on: NCI-H2405
How it was run: (§1)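 After 5 days of treatment, lung cancer cells in 1536-well plates were fixed and stained in a single step (final 0.05% Triton X-100, 1% formaldehyde, 1 ug/ml Hoechst) and their nuclei counted on 4× images. Treatment had been applied by pin tool the day after seeding as one drug alone or as a fixed anchor-drug dose with five library-drug doses (not always all listed) in √10 steps. Relative viability is the nuclei count of treated wells divided by that of vehicle wells, and values are medians of duplicate plates.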

[2] = tested on: LC-2-ad
How it was run: as §1

[3] = tested on: NCI-H2087
How it was run: as §1

[4] = tested on: COR-L 105
How it was run: as §1

[5] = tested on: NCI-H23
How it was run: as §1

[6] = tested on: 201T
How it was run: as §1

[7] = tested on: NCI-H650
How it was run: as §1

[8] = tested on: NCI-H1915
How it was run: as §1

[9] = tested on: H3255
How it was run: as §1

[10] = tested on: EPLC-272H
How it was run: as §1

[11] = tested on: NCI-H2126
How it was run: as §1

[12] = tested on: HCC-827
How it was run: as §1

[13] = tested on: NCI-H661
How it was run: as §1

[14] = tested on: NCI-H2347
How it was run: as §1

[15] = tested on: ChaGo-K-1
How it was run: as §1

[16] = tested on: RERF-LC-KJ
How it was run: as §1

[17] = tested on: NCI-H647
How it was run: as §1

[18] = tested on: HCC-78
How it was run: as §1

[19] = tested on: LCLC-97TM1
How it was run: as §1

[20] = tested on: PC-14
How it was run: as §1

[21] = tested on: NCI-H1666
How it was run: as §1

[22] = tested on: NCI-H520
How it was run: as §1

O=c1cc(-c2cccc3c2Sc2ccccc2S3)oc(N2CCOCC2)c1 + Nc1ncn([C@H]2C[C@H](O)[C@@H](CO)O2)c(=O)n1 [Decitabine] (partner 2 µM) was tested, and the relative viability ([1]; first compound 0.08 µM) was 0.697, the relative viability ([1]; first compound 0.253 µM) was 0.864 and the relative viability ([1]; first compound 0.8 µM) was 0.677. The relative viability ([1]; first compound 2.53 µM) was 0.695, the relative viability ([1]; first compound 8 µM) was 0.756 and the relative viability ([2]; first compound 0.08 µM) was 0.786. For the same compound, the relative viability ([2]; first compound 0.253 µM) was 0.928, the relative viability ([2]; first compound 0.8 µM) was 0.905 and the relative viability ([2]; first compound 2.53 µM) was 0.761. It also gave a relative viability ([2]; first compound 8 µM) of 0.793, a relative viability ([3]; first compound 0.08 µM) of 0.231 and a relative viability ([3]; first compound 0.253 µM) of 0.257. The relative viability ([3]; first compound 0.8 µM) was 0.266, the relative viability ([3]; first compound 2.53 µM) was 0.242 and the relative viability ([3]; first compound 8 µM) was 0.238. The relative viability ([4]; first compound 0.08 µM) was 0.603, the relative viability ([4]; first compound 0.253 µM) was 0.568 and the relative viability ([4]; first compound 0.8 µM) was 0.583. The relative viability ([4]; first compound 2.53 µM) was 0.612, the relative viability ([4]; first compound 8 µM) was 0.74 and the relative viability ([5]; first compound 0.08 µM) was 0.274. It also gave a relative viability ([5]; first compound 0.253 µM) of 0.314, a relative viability ([5]; first compound 0.8 µM) of 0.297 and a relative viability ([5]; first compound 2.53 µM) of 0.264. It also gave a relative viability ([5]; first compound 8 µM) of 0.293, a relative viability ([6]; first compound 0.08 µM) of 0.855 and a relative viability ([6]; first compound 0.253 µM) of 0.882. It also gave a relative viability ([6]; first compound 0.8 µM) of 0.893, a relative viability ([6]; first compound 2.53 µM) of 0.816 and a relative viability ([6]; first compound 8 µM) of 0.744. For the same compound, the relative viability ([7]; first compound 0.08 µM) was 0.317, the relative viability ([7]; first compound 0.253 µM) was 0.352 and the relative viability ([7]; first compound 0.8 µM) was 0.513. The relative viability ([7]; first compound 2.53 µM) was 0.322, the relative viability ([7]; first compound 8 µM) was 0.29 and the relative viability ([8]; first compound 0.08 µM) was 0.259. The relative viability ([8]; first compound 0.253 µM) was 0.277, the relative viability ([8]; first compound 0.8 µM) was 0.271 and the relative viability ([8]; first compound 2.53 µM) was 0.259. The relative viability ([8]; first compound 8 µM) was 0.289, the relative viability ([9]; first compound 0.08 µM) was 0.653 and the relative viability ([9]; first compound 0.253 µM) was 0.68. It also gave a relative viability ([9]; first compound 0.8 µM) of 0.631, a relative viability ([9]; first compound 2.53 µM) of 0.558 and a relative viability ([9]; first compound 8 µM) of 0.689. The relative viability ([10]; first compound 0.08 µM) was 0.341, the relative viability ([10]; first compound 0.253 µM) was 0.409 and the relative viability ([10]; first compound 0.8 µM) was 0.363. The relative viability ([10]; first compound 2.53 µM) was 0.343, the relative viability ([10]; first compound 8 µM) was 0.366 and the relative viability ([11]; first compound 0.08 µM) was 0.583. It also gave a relative viability ([11]; first compound 0.253 µM) of 0.581, a relative viability ([11]; first compound 0.8 µM) of 0.612 and a relative viability ([11]; first compound 2.53 µM) of 0.534. It also gave a relative viability ([11]; first compound 8 µM) of 0.54, a relative viability ([12]; first compound 0.08 µM) of 0.266 and a relative viability ([12]; first compound 0.253 µM) of 0.341. The relative viability ([12]; first compound 0.8 µM) was 0.315, the relative viability ([12]; first compound 2.53 µM) was 0.219 and the relative viability ([12]; first compound 8 µM) was 0.344. The relative viability ([13]; first compound 0.08 µM) was 0.536, the relative viability ([13]; first compound 0.253 µM) was 0.572 and the relative viability ([13]; first compound 0.8 µM) was 0.518. It also gave a relative viability ([13]; first compound 2.53 µM) of 0.551, a relative viability ([13]; first compound 8 µM) of 0.558 and a relative viability ([14]; first compound 0.08 µM) of 0.606. For the same compound, the relative viability ([14]; first compound 0.253 µM) was 0.663, the relative viability ([14]; first compound 0.8 µM) was 0.627 and the relative viability ([14]; first compound 2.53 µM) was 0.616. The relative viability ([14]; first compound 8 µM) was 0.629, the relative viability ([15]; first compound 0.08 µM) was 0.542 and the relative viability ([15]; first compound 0.253 µM) was 0.555. The relative viability ([15]; first compound 0.8 µM) was 0.541, the relative viability ([15]; first compound 2.53 µM) was 0.51 and the relative viability ([15]; first compound 8 µM) was 0.555. It also gave a relative viability ([16]; first compound 0.08 µM) of 0.643, a relative viability ([16]; first compound 0.253 µM) of 0.818 and a relative viability ([16]; first compound 0.8 µM) of 0.709. For the same compound, the relative viability ([16]; first compound 2.53 µM) was 0.655, the relative viability ([16]; first compound 8 µM) was 0.676 and the relative viability ([17]; first compound 0.08 µM) was 0.428. For the same compound, the relative viability ([17]; first compound 0.253 µM) was 0.534, the relative viability ([17]; first compound 0.8 µM) was 0.414 and the relative viability ([17]; first compound 2.53 µM) was 0.403. It also gave a relative viability ([17]; first compound 8 µM) of 0.45, a relative viability ([18]; first compound 0.08 µM) of 0.653 and a relative viability ([18]; first compound 0.253 µM) of 0.906. The relative viability ([18]; first compound 0.8 µM) was 0.647, the relative viability ([18]; first compound 2.53 µM) was 0.664 and the relative viability ([18]; first compound 8 µM) was 0.74. For the same compound, the relative viability ([19]; first compound 0.08 µM) was 0.195, the relative viability ([19]; first compound 0.253 µM) was 0.217 and the relative viability ([19]; first compound 0.8 µM) was 0.256. For the same compound, the relative viability ([19]; first compound 2.53 µM) was 0.186, the relative viability ([19]; first compound 8 µM) was 0.242 and the relative viability ([20]; first compound 0.08 µM) was 0.213. It also gave a relative viability ([20]; first compound 0.253 µM) of 0.19, a relative viability ([20]; first compound 0.8 µM) of 0.185 and a relative viability ([20]; first compound 2.53 µM) of 0.165. For the same compound, the relative viability ([20]; first compound 8 µM) was 0.217, the relative viability ([21]; first compound 0.08 µM) was 0.664 and the relative viability ([21]; first compound 0.253 µM) was 0.799. The relative viability ([21]; first compound 0.8 µM) was 0.706, the relative viability ([21]; first compound 2.53 µM) was 0.678 and the relative viability ([21]; first compound 8 µM) was 0.762. It also gave a relative viability ([22]; first compound 0.08 µM) of 0.518, a relative viability ([22]; first compound 0.253 µM) of 0.623 and a relative viability ([22]; first compound 0.8 µM) of 0.577. The relative viability ([22]; first compound 2.53 µM) was 0.499 and the relative viability ([22]; first compound 8 µM) was 0.548.
